Read-outs that look alike come from different tables or passages of the source.
Key:
[1] = test system: ASP OleD (A242V/S132F/P67T); assay: Kinetic parameters with model acceptors phenol, thiophenol, aniline; type: biochemical, Streptomyces antibioticus; details: UDP-Glc donor
Excerpt: To confirm O—, S- and N-glucoside formation, iterative glycosylation, and determine anomeric stereoselectivity, a select set of OleD-catalyzed reactions with simple aromatic model acceptors phenol (FIG. 17: 8), thiophenol (FIG. 17: 6), and aniline (FIG. 17: 34) were studied in depth.

OleD A242V = target: T1, OleD A242V (Streptomyces antibioticus, UniProt Q53685, A242V/P55A/R82V/R83E/T84P); type: biochemical; details: Table 3, 4-Me-umb (4) as acceptor, end point assay
T1 construct: made in house; host or cells: E. coli BL21(DE3)pLysS (error-prone PCR clone in pET28a)
Method: (§1) Reactions were carried out as described above with the following exceptions. The total volume was 50 μl and the acceptor FIG. 1: 4 was at 50 μM and the NDP-sugar at ˜500 μM. The NDP-sugars were used directly from RmlA-catalyzed reactions. […] Reactions were incubated at 25° C. for 3 h.
(§2) The total volume was 50 μl and the acceptor FIG. 1: 4 or FIG. 1: 1 was at 50 μM and the NDP-sugar at ˜500 μM. The NDP-sugars were used directly from RmlA-catalyzed reactions. […] Reactions were incubated at 25° C. for 3 h.
(§3) For activity toward FIG. 1: 4, aliquots (25 μl) were quenched with 25 μl of an 8:1 mixture of ice-cold MeOH/HCl, and centrifuged at 14,000 rpm for 10 min. […] HPLC peak areas were integrated, and the product concentration calculated as a percent of the total peak area. All products were characterized by LC-MS. Mass spectra were obtained using electrospray ionization on an Agilent 1100 HPLC-MSD SL quadrapole mass spectrometer connected to a UV/Vis diode array detector.

OleD S132F = target: T2, OleD S132F (Streptomyces antibioticus, UniProt Q53685, P55A/R82V/R83E/S132F/T84P); type: biochemical; details: Table 3, 4-Me-umb (4) as acceptor, end point assay
T2 construct: made in house; host or cells: E. coli (site-directed mutant of pET28/OleD)
Method: as §1, §2, §3

OleD P67T = target: T3, OleD P67T (Streptomyces antibioticus, UniProt Q53685, P55A/P67T/R82V/R83E/T84P); type: biochemical; details: Table 3, 4-Me-umb (4) as acceptor, end point assay
T3 construct: made in house; host or cells: E. coli (site-directed mutant of pET28/OleD)
Method: as §1, §2, §3

OleD P67T/S132F/A242V [2] = target: T4, OleD P67T/S132F/A242V (Streptomyces antibioticus, UniProt Q53685, A242V/P67T/S132F); type: biochemical; details: for Conversion Rate (%), P67T/S132F/A242V: Table 2, acceptor 4 at 50 μM, NDP-sugar ~500 μM, 25° C., 3 h; for Conversion rates (%), P67T/S132F/A242V: Table 3, 4-Me-umb (4) as acceptor, end point assay
T4 construct: made in house; host or cells: E. coli (site-directed mutant of pET28/OleD)
Method: as §1, §2, §3

WT OleD = target: T5, WT OleD (Streptomyces antibioticus, UniProt Q53685, P55A/R82V/R83E/T84P); type: biochemical; details: for Conversion Rate (%), WT: Table 2, acceptor 4 at 50 μM, NDP-sugar ~500 μM, 25° C., 3 h; for Conversion rates (%), WT: Table 3, 4-Me-umb (4) as acceptor, end point assay
T5 construct: made in house; host or cells: E. coli BL21(DE3)pLysS, plasmid pET28/OleD
Method: as §1, §2, §3

OleD P67T/S132F/A242V [3] = target: T4, OleD P67T/S132F/A242V; type: biochemical; details: novobiocic acid (FIG. 9: 1) as acceptor
Method: Biotechnol. […] Reactions were incubated at 25° C. for 3 h. […] Supernatants were analyzed by analytical reverse-phase HPLC as described above. HPLC peak areas were integrated, and the product concentration calculated as a percent of the total peak area. All products were characterized by LC-MS.

[4] = test system: CC(C)=CCc1cc(C(=O)Nc2c(O)c3ccc(O)c(C)c3oc2=O)ccc1O; assay: purified protein, by the assay type; details: other: named substrate varied, other substrate fixed at 5 mM; pH 8.0

| Compound | catalytic efficiency (kcat/Km) improvement of ASP versus WT OleD [1] | Conversion rates (%), A242V (OleD A242V) | Conversion rates (%), S132F (OleD S132F) | Conversion rates (%), P67T (OleD P67T) | Conversion rates (%), P67T/S132F/A242V (OleD P67T/S132F/A242V [2]) | Conversion rates (%), WT (WT OleD) | also measured |
| --- | --- | --- | --- | --- | --- | --- | --- |
| Oc1ccccc1 [phenol (FIG. 17; 8), phenol] | 25 fold |  |  |  |  |  |  |
| UDP-6-deoxy-glucose [UDP-6-deoxy-glc (8)] |  | 6% | 10% | 11% | 85% | 6% | Conversion rates (%), A242V (OleD A242V; listed as FIG. 3: 8): ≤ 12%; Conversion rates (%), S132F (OleD S132F; listed as FIG. 3: 8): ≤ 12%; Conversion rates (%), P67T (OleD P67T; listed as FIG. 3: 8): ≤ 12%; Conversion Rate (%), P67T/S132F/A242V (OleD P67T/S132F/A242V [2]): 85%; Conversion Rate (%), WT (WT OleD): 6% |
| [N-]=[N+]=NCC1OC(OP(=O)(O)OP(=O)(O)OC[C@H]2O[C@@H](n3ccc(=O)[nH]c3=O)[C@H](O)[C@@H]2O)C(O)C(O)C1O (stereo partly shown) [UDP-6-azido-glc (11), UDP-6-azido-glucose] |  | 2% | 1% | 2% | 41% | 0% | donor acceptance, P67T/S132F/A242V (OleD P67T/S132F/A242V [3]): albeit poorly |
| OleD P67T/I112K/A242V (Streptomyces antibioticus; A242V/I112K/P67T) |  |  |  |  |  |  | Km [4]: 800 µM; kcat [4]: 0.0855 s⁻¹ |
| UDP-4-deoxy-glc [UDP-4-deoxy-glc (12)] |  | 0% | 0% | 0% | 22% | 0% |  |
| Nc1ccccc1 [aniline (FIG. 17: 34), aniline] | 5 fold |  |  |  |  |  |  |
| UDP-6-thio-glucose [FIG. 3: 9] |  |  |  |  |  |  | Conversion Rate (%), P67T/S132F/A242V (OleD P67T/S132F/A242V [2]): 47%; Conversion Rate (%), WT (WT OleD; listed as 9): 1% |
| Sc1ccccc1 [thiophenol (FIG. 17: 6), thiophenol] | 4 fold |  |  |  |  |  |  |

— patent US8093028B2, “Engineered glycosyltransferases with expanded substrate specificity” (Wisconsin Alumni Research Foundation, priority 2007, dated 2012)
